Consider 21 molecules from US10093660B2, “Sulfoximine substituted quinazolines for pharmaceutical compositions” (EVOTEC INTERNATIONAL GMBH, priority 2013, dated 2018).

One assay deals with MNK1a (Homo sapiens (Human), UniProt Q9BUB5). In words: MNK1 in vitro kinase assay (Assay 3), Z'-LYTE. Type of assay: biochemical. To be noted: for inhibition at 1 µM: read-out: MNK1 % INH. An excerpt:
C. MNK1 In Vitro Kinase Assay (Assay 3)
MNK1 Data can be obtained from the MNK1 Z′-LYTE® assay. The MNK1 Z′-LYTE® screening protocol and assay conditions are also described on www.invitrogen.com.
The assay is described as follows:
The Z′-LYTE® biochemical assay employs a fluorescence-based, coupled-enzyme format and is based on the differential sensitivity of phosphorylated and non-phosphorylated peptides to proteolytic cleavage. The peptide substrate is labeled with two fluorophores—one at each end—that make up a FRET pair.
In the primary reaction, the kinase transfers the gamma-phosphate of ATP to a single tyrosine, serine or threonine residue in a synthetic FRET-peptide. In the secondary reaction, a site-specific protease recognizes and cleaves non-phosphorylated FRET-peptides. Phosphorylation of FRET-peptides suppresses cleavage by the Development Reagent. Cleavage disrupts FRET between the donor (i.e., coumarin) and acceptor (i.e., fluorescein) fluorophores on the FRET-peptide, whereas uncleaved, phosphorylated FRET-peptides maintain FRET. A ratiometric method, which calculates the ratio (the Emission Ratio) of donor emission to acceptor emission after excitation of the donor fluorophore at 400 nm, is used to quantitate reaction progress, as shown in the equation below.
The 2×MKNK1 (MNK1) mixture is prepared in 50 mM HEPES pH 7.5, 0.01% BRIJ-35, 10 mM MgCl2, 4 mM MnCl2, 1 mM EGTA, 2 mM DTT.
The Test Compounds are screened in 1% DMSO (final) in the well.
All Peptide/Kinase Mixtures are diluted to a 2× working concentration in the MNK1 Kinase Buffer.
All ATP Solutions are diluted to a 4× working concentration in Kinase Buffer (50 mM HEPES pH 7.5, 0.01% BRIJ-35, 10 mM MgCl2, 1 mM EGTA).
Development Reagent Solution:
The Development Reagent is diluted in Development Buffer
1. 2.5 μL—4× Test Compound
2. 5 μL—2× Peptide/Kinase Mixture
5. 60-minute Kinase Reaction incubation at room temperature
6. 5 μL—Development Reagent Solution
8. 60-minute Development Reaction incubation at room temperature
9. Read on fluorescence plate reader and analyze the data
Control C0%=Average Coumarin emission signal of the 0% Phos. Control F100%=Average Fluorescein emission signal of the 100% Phos. Control F0%=Average Fluorescein emission signal of the 0% Phos. Control Graphing Software
SelectScreen® Kinase Profiling Service uses XLfit from IDBS. […] The activity of MNK proteins can be assayed also by other in vitro kinase assay formats. […] In general, MNK kinase assays can be performed such that a MNK substrate such as a protein or a peptide, which may or may not include modifications as further described below, or others are phosphorylated by MNK proteins having enzymatic activity in vitro. The activity of a candidate agent can then be determined via its ability to decrease the enzymatic activity of the MNK protein. The kinase activity may be detected by change of the chemical, physical or immunological properties of the substrate due to phosphorylation.

Another assay has as its target MNK2a (Homo sapiens (Human), UniProt Q9HBH9). Description: MNK2a in vitro kinase assay (Assay 2), ADP-Glo. It is filed as biochemical. To be noted: assay 2; read-out: MNK2 IC50. An excerpt:
B. MNK2a In Vitro Kinase Assay (Assay 2)

Chain of MNK1a (Q9BUB5 other isoform, or with tags, fused parts or gaps): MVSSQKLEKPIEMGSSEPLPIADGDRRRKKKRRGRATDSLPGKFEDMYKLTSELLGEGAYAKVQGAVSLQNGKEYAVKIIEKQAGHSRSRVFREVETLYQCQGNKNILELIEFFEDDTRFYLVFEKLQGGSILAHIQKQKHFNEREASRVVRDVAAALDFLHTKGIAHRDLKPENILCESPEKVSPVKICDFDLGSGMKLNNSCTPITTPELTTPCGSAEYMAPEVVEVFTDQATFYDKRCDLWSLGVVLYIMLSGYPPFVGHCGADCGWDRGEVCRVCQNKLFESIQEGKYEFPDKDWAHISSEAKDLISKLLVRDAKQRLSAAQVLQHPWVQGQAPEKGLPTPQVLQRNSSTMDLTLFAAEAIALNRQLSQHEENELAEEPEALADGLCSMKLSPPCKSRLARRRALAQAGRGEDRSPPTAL
Chain of MNK2a (Q9HBH9 whole entry): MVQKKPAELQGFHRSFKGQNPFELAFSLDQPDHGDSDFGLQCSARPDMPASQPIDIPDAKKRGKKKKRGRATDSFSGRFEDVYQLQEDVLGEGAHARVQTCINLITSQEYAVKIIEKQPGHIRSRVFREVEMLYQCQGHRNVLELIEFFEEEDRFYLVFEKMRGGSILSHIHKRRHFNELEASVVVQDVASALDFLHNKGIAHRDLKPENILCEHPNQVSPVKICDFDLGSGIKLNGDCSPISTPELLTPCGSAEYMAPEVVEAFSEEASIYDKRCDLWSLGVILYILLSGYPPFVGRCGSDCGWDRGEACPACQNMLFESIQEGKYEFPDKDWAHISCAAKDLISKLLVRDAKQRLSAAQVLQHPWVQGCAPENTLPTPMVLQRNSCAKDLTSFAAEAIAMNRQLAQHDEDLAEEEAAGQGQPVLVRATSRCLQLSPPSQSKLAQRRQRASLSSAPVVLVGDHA

For orientation: IC50 means the midpoint of a concentration-inhibition curve. For `COc1cc(N=S(C)(=O)c2cccnc2)cc2ncnc(Nc3ccc(F)cc3O[C@H]3COC[C@H]3O)c12` (mixture of isomers) [Example 9.12], on MNK1a (compound concentration of 1 μM), the inhibition at 1 µM amounted to 86%. Also, the IC50 on MNK2a was 27 nM.

In the case of `COc1cc(N=S(C)(=O)C2CCOCC2)cc2ncnc(Nc3ccc(F)cc3O[C@H]3COC[C@H]3O)c12` (mixture of isomers) [Example 9.15], the inhibition at 1 µM on MNK1a (compound concentration of 1 μM) came out at 82%. Also, the IC50 at MNK2a is 32 nM.

Turning to `COc1cc(N=S(C)(=O)C2CC2)cc2ncnc(Nc3ccc(F)cc3O[C@H]3COC[C@H]3O)c12` (mixture of isomers) [Example 9.17], the inhibition at 1 µM on MNK1a (compound concentration of 1 μM) turned out to be 92%. Further, the IC50 on MNK2a stood at 33 nM.

As to `COc1cc(N=S(C)(=O)C(C)(C)C)cc2ncnc(Nc3ccc(F)cc3O[C@H]3COC[C@H]3O)c12` (mixture of isomers) [Example 9.19], the IC50 came to 329 nM at MNK1a and 42 nM on MNK2a.

For `COc1cc(N=S(C)(=O)C(C)C)cc2ncnc(Nc3ccc(F)cc3O[C@H]3COC[C@H]3O)c12` (mixture of isomers) [Example 9.20], the inhibition at 1 µM on MNK1a (compound concentration of 1 μM) was 87%. Also, the half-inhibitory concentration (IC50) on MNK2a stood at 23 nM.

With `COc1cc(N=S(C)(=O)c2ccccc2)cc2ncnc(Nc3ccc(F)cc3O[C@H]3COC[C@H]3O)c12` (mixture of isomers) [Example 9.21], at MNK1a (compound concentration of 1 μM), the inhibition at 1 µM amounted to 84%. On MNK2a, the half-maximal inhibitory concentration (IC50) is 23 nM.

`COc1cc(N=S2(=O)CCC(C)C2)cc2ncnc(Nc3ccc(F)cc3O[C@H]3COC[C@H]3O)c12` (mixture of isomers) [Example 9.23]: the inhibition at 1 µM at MNK1a (compound concentration of 1 μM) amounted to 93%. Besides, the IC50 at MNK2a stood at 8 nM.

`CS(C)(=O)=Nc1cc(Cl)c2c(Nc3ccc(F)cc3O[C@H]3COC[C@H]3O)ncnc2c1` (racemic) [Example 1.3]: the inhibition at 1 µM at MNK1a (compound concentration of 1 μM) amounted to 95%. Also, at MNK2a, the IC50 stood at 3 nM.

As for `CO[C@@H]1COC[C@@H]1Oc1cc(F)ccc1Nc1ncnc2cc(N=S(C)(C)=O)cc(Cl)c12` (racemic) [Example 1.4], at MNK1a (compound concentration of 1 μM), the inhibition at 1 µM stood at 97%. Besides, the half-maximal inhibitory concentration (IC50) at MNK2a was 2 nM.

Turning to `O=S1(=Nc2cc(Cl)c3c(Nc4ccc(F)cc4O[C@H]4COC[C@H]4O)ncnc3c2)CCCC1` (racemic) [Example 1.5], the inhibition at 1 µM on MNK1a (compound concentration of 1 μM) came to 88%. For the same molecule, on MNK2a, the concentration for half-maximal inhibition (IC50) is 2 nM.

Take `Cc1cc(N=S2(=O)CCCC2)cc2ncnc(Nc3cccnc3O[C@@H]3COC[C@@H]3O)c12` (single isomer, unassigned) [Example 14.3]: the inhibition at 1 µM on MNK1a (compound concentration of 1 μM) worked out at 100%.

`Cc1cc(N=S2(=O)CCCC2)cc2ncnc(Nc3cccnc3O[C@H]3COC[C@H]3O)c12` (single isomer, unassigned) [Example 14.4]: the inhibition at 1 µM on MNK1a (compound concentration of 1 μM) is 103%.

With `Cc1cc(N=S2(=O)CCCC2)cc2ncnc(Nc3cccnc3O[C@H]3COC[C@@H]3O)c12` [Example 2.24], at MNK1a (compound concentration of 1 μM), the inhibition at 1 µM was 99%.

Consider `Cc1cc(N=S(C)(C)=O)cc2ncnc(Nc3ccc(F)cc3O[C@H]3COC[C@@H]3O)c12` [Example 2.27], for which the inhibition at 1 µM on MNK1a (compound concentration of 1 μM) turned out to be 97%.

As for `Cc1cc(N=S2(=O)CCC2)cc2ncnc(Nc3ccc(F)cc3O[C@H]3COC[C@@H]3O)c12` [Example 2.36], the 50% inhibitory concentration (IC50) on MNK1a came to 51 nM.

In turn, `Cc1cc(N=S(C)(C)=O)cc2ncnc(Nc3ccc(F)cc3O[C@H]3COC[C@@H]3O)c12` [Example 2.45] returned a half-inhibitory concentration (IC50) against MNK1a of 92 nM. Also, the “MNK1 % INH” value at MNK1a (compound concentration of 1 μM) was 92%.

As for `Cc1cc(N=S2(=O)CCC2)cc2ncnc(Nc3ccc(F)cc3O[C@@H]3COC[C@H]3O)c12` [Example 2.47], the inhibition at 1 µM on MNK1a (compound concentration of 1 μM) came out at 103%.

Consider `Cc1cc(N=S2(=O)CCC2)cc2ncnc(Nc3cccnc3O[C@@H]3COC[C@H]3O)c12` [Example 2.49], for which, on MNK1a (compound concentration of 1 μM), the inhibition at 1 µM came to 94%.

Consider `O=S1(=Nc2cc(F)c3c(Nc4ccc(F)cc4O[C@H]4COC[C@@H]4O)ncnc3c2)CCCC1` [Example 2.66], for which the inhibition at 1 µM on MNK1a (compound concentration of 1 μM) was 100%.

As to `Cc1cc(N=S(C)(=O)C2CC2)cc2ncnc(Nc3ccc(F)cc3O[C@H]3COC[C@@H]3O)c12` (some centres unmarked) [Example 2.77], the inhibition at 1 µM on MNK1a (compound concentration of 1 μM) came to 94%.

As for `Cc1cc(N=S2(=O)CCCC2)cc2ncnc(Nc3ccc(F)cc3O[C@H]3CNC[C@@H]3O)c12` [Example 3.6], the inhibition at 1 µM at MNK1a (compound concentration of 1 μM) was determined as 98%.
